Data published in PubChem BioAssay AID248 (DTP/NCI, 2004).
Inconclusive results and toxic doses are left out.

System: L1210 leukemia ip in BDF1 mice, survival T/C
Assay: NCI In Vivo Anticancer Drug Screen. Data for tumor model L1210 Leukemia (intraperitoneal) in B6D2F1 (BDF1) mice
Settings: endpoint: mean survival time, higher = longer survival
Summary of the method: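 Each compound was tested against a transplantable tumor grown in mice. The endpoint was survival, with treated animals benchmarked against vehicle controls as a simple ratio.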

[1] = dose: 100.0 mg/kg/injection, schedule: Q01DX009 (ip), vehicle: Klucel (hydroxypropylcellulose) (HPC)
[2] = dose: 100.0 mg/kg/injection, schedule: Q04DX003 (ip), vehicle: Klucel (hydroxypropylcellulose) (HPC)
[3] = dose: 200.0 mg/kg/injection, schedule: Q01DX009 (ip), vehicle: Klucel (hydroxypropylcellulose) (HPC)
[4] = dose: 200.0 mg/kg/injection, schedule: Q04DX003 (ip), vehicle: Klucel (hydroxypropylcellulose) (HPC)
[5] = dose: 400.0 mg/kg/injection, schedule: Q04DX003 (ip), vehicle: Klucel (hydroxypropylcellulose) (HPC)
[6] = dose: 50.0 mg/kg/injection, schedule: Q01DX009 (ip), vehicle: Klucel (hydroxypropylcellulose) (HPC)

What does the source list for `COc1ccc(O)c(/C=N\Nc2ccccc2)c1`?
T/C [1]: 89 % of control; T/C [2]: 96 % of control; T/C [3]: 91 % of control; T/C [4]: 94 % of control; T/C (dose: 400.0 mg/kg/injection, schedule: Q01DX009 (ip), vehicle: Klucel (hydroxypropylcellulose) (HPC)): 86 % of control; T/C [5]: 92 % of control

What does the source list for `COc1ccc(OC)c(CCO)c1`?
T/C (dose: 50.0 mg/kg/injection, schedule: Q01DX001 (ip), vehicle: carboxymethylcellulose (CMC)): 93 % of control; T/C (dose: 100.0 mg/kg/injection, schedule: Q01DX001 (ip), vehicle: carboxymethylcellulose (CMC)): 98 % of control; T/C (dose: 200.0 mg/kg/injection, schedule: Q01DX001 (ip), vehicle: carboxymethylcellulose (CMC)): 91 % of control; T/C (dose: 400.0 mg/kg/injection, schedule: Q01DX001 (ip), vehicle: carboxymethylcellulose (CMC)): 93 % of control

Which T/C (dose: 100.0 mg/kg/injection, schedule: Q04DX003 (ip), vehicle: saline with Tween-80) does the source give for `Cc1cc(=O)n(-c2ccccc2)n1C.[Cl-].[Cl-].[Cl-].[Cl-].[Pt+2]` here?
Its T/C is 97 % of control.

And the T/C (dose: 200.0 mg/kg/injection, schedule: Q04DX003 (ip), vehicle: saline with Tween-80)?
Its T/C is 103 % of control.

And the T/C (dose: 400.0 mg/kg/injection, schedule: Q04DX003 (ip), vehicle: saline with Tween-80)?
Its T/C is 105 % of control.

`CC(=O)/C=C/c1ccccc1` was tested. Which T/C (dose: 100.0 mg/kg/injection, schedule: Q01DX001 (ip), vehicle: gum acacia) did it give?
The T/C was 91 % of control.

And the T/C (dose: 200.0 mg/kg/injection, schedule: Q01DX001 (ip), vehicle: gum acacia)?
The T/C was 105 % of control.

What about the T/C (dose: 400.0 mg/kg/injection, schedule: Q01DX001 (ip), vehicle: gum acacia) of the same molecule?
The T/C was 97 % of control.

With `O=C1c2ccccc2C(=O)c2c3c(cc(NCCNCCO)c21)N(CCO)CCN3` as the molecule, how does the T/C (dose: 25.0 mg/kg/injection, schedule: Q01DX009 (ip), vehicle: DMSO) read?
Its T/C is 119 % of control.

And the T/C (dose: 50.0 mg/kg/injection, schedule: Q01DX009 (ip), vehicle: DMSO)?
Its T/C is 121 % of control.

And the T/C (dose: 200.0 mg/kg/injection, schedule: Q01DX009 (ip), vehicle: DMSO)?
Its T/C is 122 % of control.

With `CO[C@@H](C=O)O[C@@H](C=O)CO` as the molecule, how does the T/C (dose: 35.0 mg/kg/injection, schedule: Q01DX009 (ip), vehicle: water) read?
The T/C was 115 % of control.

What about the T/C (dose: 35.0 mg/kg/injection, schedule: Q01DX Z (ip), vehicle: water) of the same molecule?
Its T/C is 115 % of control.

And the T/C (dose: 70.0 mg/kg/injection, schedule: Q01DX009 (ip), vehicle: water)?
Its T/C is 123 % of control.

And the T/C (dose: 70.0 mg/kg/injection, schedule: Q01DX Z (ip), vehicle: water)?
The T/C was 122 % of control.

And the T/C (dose: 280.0 mg/kg/injection, schedule: Q01DX009 (ip), vehicle: water)?
The T/C was 153 % of control.

What about the T/C (dose: 280.0 mg/kg/injection, schedule: Q01DX Z (ip), vehicle: water) of the same molecule?
The T/C was 160 % of control.

Which T/C [6] does the source give for `O=C(NCCNC(c1ccccc1)(c1ccccc1)c1ccccc1)C(F)(F)F` here?
The T/C was 105 % of control.

What about the T/C [1] of the same molecule?
Its T/C is 100 % of control.

What about the T/C [2] of the same molecule?
Its T/C is 91 % of control.

What about the T/C [3] of the same molecule?
Its T/C is 96 % of control.

And the T/C [4]?
The T/C was 100 % of control.

And the T/C [5]?
The T/C was 93 % of control.

What does the source list for `O=[N+]([O-])/C=C/c1c(Cl)cccc1Cl`?
T/C (dose: 6.25 mg/kg/injection, schedule: Q01DX005 (ip), vehicle: other): 108 % of control; T/C (dose: 12.5 mg/kg/injection, schedule: Q01DX005 (ip), vehicle: other): 106 % of control; T/C (dose: 25.0 mg/kg/injection, schedule: Q01DX005 (ip), vehicle: other): 93 % of control; T/C (dose: 50.0 mg/kg/injection, schedule: Q01DX005 (ip), vehicle: saline with Tween-80): 101 % of control; T/C [6]: 95 % of control; T/C [1]: 93 % of control; T/C [2]: 94 % of control; T/C [4]: 100 % of control; T/C [5]: 103 % of control

With `Cc1cc(C)c(NC(=O)NCCCl)cc1C` as the molecule, how does the T/C [2] read?
Its T/C is 104 % of control.

What about the T/C [4] of the same molecule?
Its T/C is 89 % of control.

And the T/C [5]?
Its T/C is 93 % of control.

With `CCOC(=O)c1cnc(C)nc1Nc1ccccc1Br` as the molecule, how does the T/C [2] read?
Its T/C is 98 % of control.

What about the T/C [4] of the same molecule?
The T/C was 93 % of control.

What about the T/C [5] of the same molecule?
The T/C was 101 % of control.

`O=C1CSCC(=O)N1` was tested. Which T/C (dose: 100.0 mg/kg/injection, schedule: Q01DX009 (ip), vehicle: saline) did it give?
Its T/C is 102 % of control.

And the T/C (dose: 200.0 mg/kg/injection, schedule: Q01DX009 (ip), vehicle: saline)?
Its T/C is 97 % of control.

What about the T/C (dose: 400.0 mg/kg/injection, schedule: Q01DX009 (ip), vehicle: saline) of the same molecule?
The T/C was 103 % of control.

For `CCCCSP(Oc1ccccc1)SCCCC`, which T/C [1] is on record?
The T/C was 89 % of control.

For `O=C(NCc1cnccn1)c1ccco1`, which T/C (dose: 50.0 mg/kg/injection, schedule: Q01DX005 (ip), vehicle: saline) is on record?
Its T/C is 109 % of control.

What about the T/C (dose: 100.0 mg/kg/injection, schedule: Q01DX005 (ip), vehicle: saline) of the same molecule?
Its T/C is 111 % of control.

And the T/C (dose: 200.0 mg/kg/injection, schedule: Q01DX005 (ip), vehicle: saline)?
Its T/C is 104 % of control.
